According to patent publication US9234005B2 (priority 2011, dated 2016):
Read-outs that look alike come from different tables or passages of the source. No end group written: not given here.

Assays:
PTPN4-PDZ [1] = molecular target: T1, PTPN4-PDZ (Homo sapiens, UniProt P29074, S499G); test: biochemical; format: binding; design: PTPN4-PDZ (residues G499-N604, G499 being a non-native residue due to the TEV cleavage site); GST (N, cleaved yes); made in house; host or cells: Escherichia coli BL21 (DE3) star
T1 sequence (P29074 499-604 S499G): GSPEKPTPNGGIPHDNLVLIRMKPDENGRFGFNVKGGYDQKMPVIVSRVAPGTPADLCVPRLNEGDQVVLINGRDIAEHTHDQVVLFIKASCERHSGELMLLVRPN

[2] = system: neuroblastoma cell line SK-N-SH; conditions: cited from earlier work
U373MG astrocytoma cells = format: cell-based, human
PTPN4-PDZ [3] = molecular target: T1, PTPN4-PDZ; test: biochemical
[4] = Kd for PTPN4-PDZ (dissociation constant, text)

## SWESHKSGGETRL [Cyto13-att, SWESHKSGGETRL]
PTPN4-PDZ [1]; Kd, affinity for PTPN4-PDZ
  Kd: 157 µM
[2]
  induction of cell death, in words: induces cell death
U373MG astrocytoma cells
  cell death (% of dead cells among peptide loaded cells): more than 14%

## SWELYKSEGDARL [DARL-13, SWELYKSEGDARL]
PTPN4-PDZ [1]; Kd, affinity for PTPN4-PDZ
  Kd: 1280 µM

## SWERRETEV [SEQ ID NO: 5, SWERRETEV]
PTPN4-PDZ [3]
  Kd: 2000 nM

## SWESHKSGGQTRL [Cyto13-vir, SWESHKSGGQTRL]
PTPN4-PDZ [1]
  fold difference in Kd, Cyto13-vir versus Cyto13-att: 4 fold
  ΔΔG0=RT ln(Kd(Cyto13-vir)/Kd(Cyto13-att)): 0.76 kcal·mol^−1
PTPN4-PDZ [1]; [4]
  Kd: 560 µM
PTPN4-PDZ [1]; Kd, affinity for PTPN4-PDZ
  Kd: 568 µM
[2]
  induction of cell death, in words: do not
U373MG astrocytoma cells
  cell death (% of dead cells among peptide loaded cells): 8%

## SWESHKSGG [Cyto9-Δ]
PTPN4-PDZ [1]
  interaction with PTPN4-PDZ, in words: does not interact with PTPN4-PDZ
[2]
  induction of cell death, in words: do not
U373MG astrocytoma cells
  cell death (% of dead cells among peptide loaded cells): 7%

## SWARVSKETPL [SEQ ID NO: 4, SWARVSKETPL]
PTPN4-PDZ [1]; Kd, affinity for PTPN4-PDZ
  Kd: 1.58 µM

## SWESYRSGGEIRL [EIRL-13, SWESYRSGGEIRL]
PTPN4-PDZ [1]
  interaction with PTPN4-PDZ, in words: low affinity
PTPN4-PDZ [1]; Kd, affinity for PTPN4-PDZ
  Kd: 1170 µM

## LNLGNDPDRGTSI [GluD2-13, LNLGNDPDRGTSI]
PTPN4-PDZ [1]; [4]
  Kd: 128 µM

## SNRRVYKKMPSIESDV-OH [GluN2A-16, SNRRVYKKMPSIESDV]
PTPN4-PDZ [1]
  Kd: 42 µM
  fold increase in affinity for PTPN4-PDZ compared to Cyto13-att (Cyto-att): four-fold increase
U373MG astrocytoma cells
  cell death (% of dead cells among peptide loaded cells): 29%
  increase of cell death compared to Cyto13-att: two-fold increase

## SWEERETEF [SEQ ID NO: 6, SWEERETEF]
PTPN4-PDZ [3]
  Kd: 2520 nM

## SWEERETEV [SEQ ID NO: 3, SWEERETEV]
PTPN4-PDZ [3]
  Kd: 1350 nM

## SWEDRETEV [SEQ ID NO: 7, SWEDRETEV]
PTPN4-PDZ [3]
  Kd: 3880 nM

## shepherdin
U373MG astrocytoma cells
  glioblastoma death, in words: in a range similar to those obtained with Cyto13-att
